# Results taken from PubChem BioAssay (NCI).
#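 The compound was tested at five concentrations on cells cultured in 96-well plates, with a 48-hour exposure period. TGI denotes the concentration required for complete inhibition of growth.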
# Experiments:
# Experiment in all cases: NCI tumour cell line growth inhibition, 48 h
# [1] = tested on: KM20L2 colon
# [2] = tested on: SNB-19 CNS
# [3] = tested on: LOX IMVI melanoma
# [4] = tested on: MOLT-4 leukemia
# [5] = tested on: UACC-62 melanoma
# [6] = tested on: NCI-H226 lung
# [7] = tested on: NCI-H23 lung
# [8] = tested on: HOP-18 NSCLC
# [9] = tested on: NCI-H460 lung
# [10] = tested on: OVCAR-3 ovarian
# [11] = tested on: HS 578T breast
Compound,TGI [1] [µM],TGI [2] [µM],TGI [3] [µM],TGI [4] [µM],TGI [5] [µM],TGI [6] [µM],TGI [7] [µM],TGI [8] [µM],TGI [9] [µM],TGI [10] [µM],TGI [11] [µM]
Cn1c(O)c(C(=O)Nc2cccs2)c(=O)[nH]c1=S,34.1,79.6,31,61.7,27.2,42.6,28,8.34,43.7,49.8,–
CC1CC2OC(=O)C3CC(O)CC(=C23)[C@@]12C[C@@H](c1ccoc1)OC2=O (stereo partly drawn),> 100,> 100,> 100,> 100,> 100,> 100,> 100,> 100,> 100,> 100,–
COc1ccc(Br)c2c1CC(C(=O)O)CC2 (stereo not drawn),> 100,> 100,> 100,> 100,> 100,> 100,> 100,> 100,> 100,> 100,> 100
C/C(=N\N)C(CN(C)C)C(c1ccccc1)c1c(O)c2ccccc2oc1=O (stereo not drawn),> 100,> 100,> 100,> 100,> 100,> 100,> 100,> 100,> 100,> 100,> 100
COc1cc(/C=C\c2ccccn2)cc(OC)c1OC,> 100,> 100,> 100,> 100,> 100,> 100,> 100,> 100,> 100,> 100,–
COc1cc(/C=C/C(=O)c2sc(-n3nc(-c4ccccc4)cc3-c3ccccc3)nc2C)ccc1O,> 100,–,> 100,> 100,> 100,> 100,> 100,> 100,> 100,> 100,–
CN(C(=O)C12C3C4C1C1C2C3C41I)C(C)(C)C (stereo not drawn),> 100,> 100,> 100,> 47.3,> 100,> 94.6,> 100,> 100,> 100,> 100,–
Cc1c2ccncc2cc2c1sc1ccncc12,25.7,30.3,25.6,2.45,8.41,5.18,10.7,> 100,4.77,27.7,20.4
CC(C)=CCCC1(C)C=Cc2c(c(C)cc3c2[nH]c2cc(O)ccc23)O1 (stereo not drawn),> 25,> 25,> 25,> 25,> 25,> 25,–,> 25,> 25,> 25,–
O=S(=O)([O-])[O-].[Fe+2].c1ccc(/C(=N\Nc2ccccn2)c2ccccn2)cc1,12.4,15.4,11.8,6.13,5.29,4.37,8.68,14.6,8.55,2.67,–
C=CCONC(=O)c1ccc(Cl)cc1,> 100,> 100,> 100,> 100,> 100,–,> 100,> 100,> 100,–,–
NC(=O)OCC(COc1ccc(Cl)cc1)OC(=O)c1ccccc1Cl (stereo not drawn),34.9,97.7,27.9,56.6,31.4,60.2,44.8,62.8,30.9,40.7,–
C/C(CN1C(=O)c2ccccc2C1=O)=N\NS(=O)(=O)c1ccc(Br)cc1,> 100,> 100,> 100,> 100,> 100,> 100,> 100,> 100,> 100,> 100,–
NC(=S)NNC(=O)/C(=C/c1ccc(/C=C(\NC(=O)c2ccccc2)C(=O)NNC(N)=S)cc1)NC(=O)c1ccccc1,> 100,> 100,> 100,> 50.8,> 100,> 100,> 100,> 100,> 100,> 100,–
CC(=O)OCC(=O)[C@@]1(O)CC[C@H]2[C@@H]3CCC4=CC(=O)[C@H](C)C[C@]4(C)[C@H]3[C@@H](O)C[C@@]21C,> 100,> 100,> 100,–,> 100,> 100,> 100,> 100,> 100,> 100,–
